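A five-concentration, 48-hour dose response in 96-well plates underlies each endpoint, interpolated linearly between surrounding concentrations. The concentration for full growth arrest is given as TGI.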
Experiments:
Experiment in all cases: DTP human tumour cell line panel, 48 h
[1] = test system: HCT-116 colon
[2] = test system: EKVX NSCLC
[3] = test system: HCC-2998 colon
[4] = test system: SF-539 CNS
[5] = test system: SK-MEL-2 melanoma
[6] = test system: SNB-75 CNS
[7] = test system: DMS 114 small cell lung
[8] = test system: KM12 colon
[9] = test system: OVCAR-4 ovarian
[10] = test system: SK-MEL-5 melanoma
[11] = test system: SK-OV-3 ovarian
[12] = test system: HOP-92 NSCLC
[13] = test system: SN12C renal
[14] = test system: DLD-1 colon
[15] = test system: COLO 205 colon
[16] = test system: HT29 colon
[17] = test system: UACC-62 melanoma
[18] = test system: CCRF-CEM leukemia
[19] = test system: NCI-H522 lung
[20] = test system: IGROV1 ovarian
[21] = test system: RPMI-8226 leukemia
[22] = test system: M19-MEL melanoma
[23] = test system: DMS 273 small cell lung
[24] = test system: LOX IMVI melanoma
[25] = test system: LXFL 529 NSCLC
[26] = test system: OVCAR-8 ovarian
[27] = test system: SR leukemia
[28] = test system: M14 melanoma
[29] = test system: SF-295 CNS
[30] = test system: HCT-15 colon
[31] = test system: RXF 393 renal
[32] = test system: HOP-18 NSCLC
[33] = test system: 786-0 renal
[34] = test system: NCI-H460 lung
[35] = test system: KM20L2 colon
[36] = test system: CAKI-1 renal
[37] = test system: A498 renal
[38] = test system: UACC-257 melanoma
[39] = test system: HL-60(TB) leukemia
[40] = test system: SF-268 CNS
[41] = test system: SW-620 colon
[42] = test system: UO-31 renal
[43] = test system: NCI-H23 lung
[44] = test system: MALME-3M melanoma
[45] = test system: OVCAR-5 ovarian
[46] = test system: SK-MEL-28 melanoma
[47] = test system: U251 CNS
[48] = test system: RXF-631 renal
[49] = test system: A549 NSCLC
[50] = test system: ACHN renal
[51] = test system: NCI-H226 lung
[52] = test system: K-562 leukemia
[53] = test system: HOP-62 NSCLC
[54] = test system: OVCAR-3 ovarian
[55] = test system: TK-10 renal
[56] = test system: SNB-78 CNS
[57] = test system: XF 498 CNS
[58] = test system: SNB-19 CNS
[59] = test system: MOLT-4 leukemia

CN(C)CC1CCCC/C1=N/OC(=O)c1ccc(Cl)c(Cl)c1 (stereo not drawn)
TGI [1]: > 100 µM
TGI [2]: > 100 µM
TGI [3]: > 100 µM
TGI [4]: > 100 µM
TGI [5]: > 100 µM
TGI [6]: > 100 µM
TGI [7]: > 100 µM
TGI [8]: > 100 µM
TGI [9]: > 100 µM
TGI [10]: > 100 µM
TGI [11]: > 100 µM
TGI [12]: > 100 µM
TGI [13]: > 100 µM
TGI [14]: > 100 µM
TGI [15]: > 100 µM
TGI [16]: > 100 µM
TGI [17]: > 100 µM
TGI [18]: > 100 µM
TGI [19]: > 100 µM
TGI [20]: > 100 µM
TGI [21]: > 100 µM
TGI [22]: > 100 µM
TGI [23]: > 100 µM
TGI [24]: > 100 µM
TGI [25]: > 100 µM
TGI [26]: > 100 µM
TGI [27]: > 100 µM
TGI [28]: > 100 µM
TGI [29]: > 100 µM
TGI [30]: > 100 µM
TGI [31]: > 100 µM
TGI [32]: > 100 µM
TGI [33]: > 100 µM
TGI [34]: > 100 µM
TGI [35]: > 100 µM
TGI [36]: > 100 µM
TGI [37]: > 100 µM
TGI [38]: > 100 µM
TGI [39]: > 100 µM
TGI [40]: > 100 µM
TGI [41]: > 100 µM
TGI [42]: > 100 µM
TGI [43]: > 100 µM
TGI [44]: > 100 µM
TGI [45]: > 100 µM
TGI [46]: > 100 µM
TGI [47]: > 100 µM
TGI [48]: > 100 µM
TGI [49]: > 100 µM
TGI [50]: > 100 µM
TGI [51]: > 100 µM
TGI [52]: > 100 µM
TGI [53]: > 100 µM
TGI [54]: > 100 µM
TGI [55]: > 100 µM

COC[C@@H](Cc1ccc(OC)c(OC)c1)[C@@H](COC)Cc1ccc(OC)c(OC)c1
TGI [1]: > 100 µM
TGI [2]: > 100 µM
TGI [3]: > 100 µM
TGI [4]: > 100 µM
TGI [5]: > 100 µM
TGI [6]: > 100 µM
TGI [7]: > 100 µM
TGI [8]: > 100 µM
TGI [10]: > 100 µM
TGI [11]: > 100 µM
TGI [12]: > 100 µM
TGI [13]: > 100 µM
TGI [14]: > 100 µM
TGI [15]: > 100 µM
TGI [16]: > 100 µM
TGI [17]: > 100 µM
TGI [18]: > 100 µM
TGI [19]: > 100 µM
TGI [20]: > 100 µM
TGI [22]: > 100 µM
TGI [23]: > 100 µM
TGI [24]: > 100 µM
TGI [56]: > 100 µM
TGI [25]: > 100 µM
TGI [26]: > 100 µM
TGI [27]: > 100 µM
TGI [28]: > 100 µM
TGI [29]: > 100 µM
TGI [30]: > 100 µM
TGI [31]: > 100 µM
TGI [32]: > 100 µM
TGI [57]: > 100 µM
TGI [34]: > 100 µM
TGI [58]: > 100 µM
TGI [35]: > 100 µM
TGI [59]: > 100 µM
TGI [37]: > 100 µM
TGI [38]: > 100 µM
TGI [39]: > 100 µM
TGI [40]: > 100 µM
TGI [41]: > 100 µM
TGI [42]: > 100 µM
TGI [43]: > 100 µM
TGI [44]: > 100 µM
TGI [45]: > 100 µM
TGI [46]: > 100 µM
TGI [47]: > 100 µM
TGI [49]: > 100 µM
TGI [50]: > 100 µM
TGI [52]: > 100 µM
TGI [54]: > 100 µM
TGI [55]: > 100 µM

N#C/C(=C\c1ccccc1Br)C(=O)c1ccccc1
TGI [1]: > 66.8 µM
TGI [2]: > 100 µM
TGI [3]: > 100 µM
TGI [4]: > 100 µM
TGI [5]: > 100 µM
TGI [7]: > 100 µM
TGI [8]: > 100 µM
TGI [9]: 58.8 µM
TGI [10]: 34.6 µM
TGI [11]: > 100 µM
TGI [12]: > 100 µM
TGI [13]: > 76.6 µM
TGI [15]: > 100 µM
TGI [16]: > 100 µM
TGI [17]: 87.5 µM
TGI [18]: 38.6 µM
TGI [19]: > 100 µM
TGI [21]: 51.6 µM
TGI [22]: > 89.5 µM
TGI [23]: > 100 µM
TGI [24]: 28.3 µM
TGI [56]: > 100 µM
TGI [25]: > 58.3 µM
TGI [26]: > 38.6 µM
TGI [27]: > 83.8 µM
TGI [28]: > 68.1 µM
TGI [29]: > 87.5 µM
TGI [30]: > 47.2 µM
TGI [31]: > 100 µM
TGI [57]: > 79.9 µM
TGI [33]: 30.5 µM
TGI [34]: > 100 µM
TGI [58]: > 87.3 µM
TGI [35]: > 100 µM
TGI [36]: > 100 µM
TGI [59]: 52.8 µM
TGI [37]: > 100 µM
TGI [38]: > 100 µM
TGI [39]: 15.9 µM
TGI [40]: > 85.4 µM
TGI [41]: > 45.7 µM
TGI [42]: > 53.9 µM
TGI [43]: > 62.2 µM
TGI [44]: > 100 µM
TGI [45]: 99.1 µM
TGI [46]: > 59.1 µM
TGI [47]: > 71.4 µM
TGI [48]: > 100 µM
TGI [49]: > 70 µM
TGI [50]: > 89.6 µM
TGI [51]: > 78.2 µM
TGI [52]: > 42.6 µM
TGI [53]: > 100 µM
TGI [54]: > 69.2 µM
TGI [55]: > 100 µM

Cn1cc(NC(=O)c2cc(NC(=O)CCCCCCC(=O)Nc3cc(C(=O)Nc4cc(C(=O)NCCC(=N)N)n(C)c4)n(C)c3)cn2C)cc1C(=O)NCCC(=N)N
TGI [1]: 41.6 µM
TGI [2]: > 100 µM
TGI [3]: 23.2 µM
TGI [4]: 31 µM
TGI [6]: 38.6 µM
TGI [7]: 5.44 µM
TGI [8]: 13.3 µM
TGI [9]: > 100 µM
TGI [10]: 3.89 µM
TGI [11]: > 100 µM
TGI [12]: > 100 µM
TGI [13]: 33.1 µM
TGI [14]: > 100 µM
TGI [15]: 18.9 µM
TGI [16]: > 100 µM
TGI [17]: 20.8 µM
TGI [18]: > 100 µM
TGI [20]: 12.8 µM
TGI [22]: 8.89 µM
TGI [23]: 12.7 µM
TGI [24]: 18.5 µM
TGI [56]: 69.5 µM
TGI [25]: 38.4 µM
TGI [26]: 43.2 µM
TGI [28]: 33.9 µM
TGI [29]: > 100 µM
TGI [30]: > 100 µM
TGI [31]: 31.4 µM
TGI [32]: > 100 µM
TGI [57]: 83 µM
TGI [33]: 33.8 µM
TGI [34]: 21.4 µM
TGI [58]: > 100 µM
TGI [35]: > 100 µM
TGI [36]: 89.7 µM
TGI [37]: 5.28 µM
TGI [38]: 5.98 µM
TGI [39]: 8.75 µM
TGI [40]: > 100 µM
TGI [41]: > 100 µM
TGI [42]: > 100 µM
TGI [43]: 15.3 µM
TGI [44]: 12.1 µM
TGI [45]: > 100 µM
TGI [46]: 16.9 µM
TGI [47]: 68.8 µM
TGI [49]: 54.4 µM
TGI [50]: 54 µM
TGI [52]: > 100 µM
TGI [54]: 50.6 µM
TGI [55]: 72.9 µM

Reference: PubChem BioAssay (NCI)
